From patent publication US20260091086A1, “POLYPEPTIDE COMBINATIONS AND USES THEREOF” (MEDIMMUNE LIMITED, priority 2024, published 2026)
Numbered stars: 1 amine (or outer) side, 2 acyl side, 3 side chain; on linkers, the order of the positions; unused ones are H or OH. Bridge positions count the residues as written; N and C are the ends. Square brackets hold non-standard residues; d marks the D form. Side chains are listed from the residue outwards. Ends that are not written are not given here. * marks the point of attachment. C18 diacid = O=C(O)CCCCCCCCCCCCCCCCC(=O)*; γGlu = O=C(O)[C@H](CCC(=O)[*:2])N[*:1]; αMeF = C[C@](N)(Cc1ccccc1)C(=O)O

Test system: DIO Sprague-Dawley rats
Test: Example 6 Study 3: 28-day treatment and 14-day wash-out
Assay type: in vivo, rat
Protocol: Study 3 Design: Male DIO Sprague-Dawley rats (Charles River Laboratories) were fed a high-fat diet (32.5% kcal fat, D12266B; […] Rats were dosed SC QD for 28 days with Vehicle (n=16), GLP-1RA at 5 nmol/kg (n=16), LAA (“SARA”) at 7.5 nmol/kg (n=16), or GLP1RA+LAA at 5+7.5 nmol/kg respectively (n=16). Following 28 days of treatment half the animals per group stopped treatment and were allowed to wash-out for 14 days (n=8/group), while the remaining animals per group were euthanized with blood/tissues collected. Body weight and food intake were measured daily, and body composition was measured before study start, on day 27 and then again on day 42. Data reported as mean±standard error of the mean (SEM); data analysis performed using GraphPad Prism. In this experiment, the LAA was that of SEQ ID NO: 11, and the GLP-1RA was semaglutide.

## K(γE-γE-C18diacid)[CNTATC]ATQRLANFLRHSSNN(αMePhe)GPILPPTEVGSNTY-amide (K([γGlu-γGlu-C18 diacid])CNTATCATQRLANFLRHSSNN[αMeF]GPILPPTEVGSNTY-NH2; disulfide 2-7) [LAA]
SC QD 28 days, LAA 7.5, GLP-1RA 5, or 5+7.5 nmol/kg
  inhibition of food intake compared to vehicle: ~−20%
SC QD 28 days, LAA 7.5, GLP-1RA 5, or 5+7.5 nmol/kg, FIG. 5I
  BW loss compared to vehicle: −9.3%
Baseline to day 27, FIG. 5K
  lean mass change: preservation of lean mass
Baseline to day 27, LAA 7.5, GLP-1RA 5, or 5+7.5 nmol/kg, FIG. 5J
  fat mass change from baseline: -17.7 g
